Data on 9 compounds can be found in US8623865B2, “Acylpiperazinones and their use as pharmaceuticals” (Fab Parma S.A.S, priority 2009, dated 2014).

In brackets after ≈: the same amount, converted by molar mass. Several values for one entry are separate records, joined by “and”; a condition that tells them apart may be missing. Identical values can stand only once. Like-named read-outs stand apart in the source and are kept apart here. A value given as a limit tells only on which side of the number the result lay.

The subject of data set [1] is S. aureus CIP 54.146 (MSSA). Put plainly: MIC, broth microdilution, S. aureus CIP 54.146 (with and without 80% human serum). It is filed as cell-based. Particulars: Staphylococcus aureus. The procedure:
The compounds of the invention are useful antibacterial agents having a selective spectrum of activity in vitro against bacterial strains relying on FabI and related targets. […] The activity is presented as Minimum Inhibitory Concentration (MIC) expressed in μg/ml and was determined using broth microdilution or Agar dilution methods.
(§1) Antibacterial activity was determined on MSSA CIP 54.146 provided by the Centre de Ressources Biologiques de l'Institut Pasteur. Antibacterial activity was also determined on MRSA (IHMA #510059) and MSSA (IHMA #555189).
This protocol is compliant with Clinical Laboratory Standards Institute (CLSI) methodology as described in M7-A7 document of the CLSI. The compound to be tested is diluted according to a geometric series of reason 2 in pure DMSO. Dilutions are transferred in sterile polystyrene microplates, followed by mid-log phase bacteria in cation-adjusted Muller-Hinton broth (ca-MHB, Fluka, Reference 90922) with a final inoculum of 5×10^5 cfu/ml. Microplates are incubated overnight at 35° C. MIC is defined as the lowest concentration of antimicrobial agent that completely prevents visible bacterial growth. All manipulations, but compound handling (in pure DMSO), are performed under sterile conditions. The final concentration of DMSO in the plates is 2%.
In order to evaluate the serum binding of test compounds, MICs were also measured in ca-MHB supplemented with 80% human serum (HS, Sigma, Reference H4522).

Data set [2] concerns the target recombinant S. aureus FabI enzyme (Staphylococcus aureus (strain MRSA252), UniProt Q6GI75). Put plainly: In vitro inhibition of recombinant S. aureus FabI enzyme (fluorescence based assay). The format is biochemical. Particulars: 60 min pre-incubation. On the procedure: Compound inhibitory activity of FabI enzyme is measured in vitro by the IC50 determination using a fluorescence based assay.
The protein FabI from S. aureus is prepared and purified using standard methods for recombinant protein expression after cloning of the gene in a prokaryotic expression vector.
The biochemical activity of the FabI enzyme is assessed using the following method.
The assay buffer “AB” contained 50 mM ADA (N-(2-acetamido)iminodiacetic acid monosodium salt) pH 6.5, 1 mM dithiothreitol, 0.006% Triton-X100 and 50 mM NaCl. The following components are added in a white polystyrene Costar plate (Ref 3912) up to a final volume of 55.5 μL: 1.5 μL DMSO or inhibitor dissolved in DMSO and 54 μL of a FabI/NADPH/NADP+ mixture in AB. After 60 min of pre-incubation at room temperature, the reaction is started by addition of 5 μL of trans-2-octenoyl N-acetylcysteamine thioester (t-o-NAC) to a final volume of 60.5 μL. This reaction mixture is then composed of 2 nM FabI, 40 μM NADPH (Sigma, N7505), 10 μM NADP+ (Sigma, N5755), 100 μM t-O-NAC and compound at defined concentration. Fluorescence intensity of NADPH (λex=360 nm, λem=520 nm) is measured immediately after t-O-NAC addition (T0), and approximately 50 min later (T50) by a Fluostar Optima (BMG) so as to achieve ±30% of NADPH conversion. Enzyme activity is calculated by first subtracting TO signal to T50 and then subtracting background signal (FabI=0). Percentages of inhibition are calculated against untreated samples (Inhibitor=0) and IC50 are fitted to a classical Langmuir equilibrium model using XLFIT (IDBS).

Data set [3] deals with methicillin susceptible Staphylococcus aureus strain ATCC 29213. Put plainly: In vivo protection assay, S. aureus infection of neutropenic mice (survival). Details: species or system Swiss mice. Particulars: 48 h.
The subject of the next data set is MRSA (IHMA #510059). The experiment in a line: MIC, broth microdilution (susceptibility method), MRSA. Conditions: Staphylococcus aureus, read-out: MIC MRSA (IHMA #510059). It is filed as cell-based. On the procedure: as §1
(§2) Minimum inhibitory concentrations (MICs) were determined by broth microdilution according to CLSI guidelines (CLSI, M100-20^1, M7-A8^2, M27-A3^3). The compounds were tested in the range from […]. Colonies were taken directly from a second-pass culture plate and prepared to a suspension equivalent to the 0.5 McFarland standard using normal saline. […] The panels were incubated at 35° C. for 16 to 20 hours before reading the MIC endpoints. The compounds of Examples 4 to 8 were dissolved in DMSO to make the initial solutions of 5120 μg/ml. These solutions were diluted 1:10 in sterile water to a stock solution of 512 μg/ml. The stock solutions were further diluted into the appropriate broth medium for the sequential dilutions used in the broth microdilution panels. S. pneumoniae was tested in Mueller Hinton (MH) broth with 3% lysed horse blood and C. albicans was tested in RPMI-1640 medium. All other organisms were tested in MH broth.

In the next data set the test system is MSSA (IHMA #555189). The experiment in a line: MIC, broth microdilution (susceptibility method), MSSA. It is filed as cell-based. Conditions: Staphylococcus aureus, read-out: MIC MSSA (IHMA #555189). The procedure:
as §1, §2

Another data set concerns E. coli (ATCC 25922). The experiment in a line: MIC, broth microdilution (susceptibility method), E. coli. It is filed as cell-based. Conditions: Escherichia coli, ATCC25922, MH broth. The procedure:
as §2

A further data set has as its system C. albicans (ATCC 90028). The experiment in a line: MIC, broth microdilution (susceptibility method), C. albicans. It is filed as cell-based. Conditions: Candida albicans, ATCC90028, RPMI-1640 medium. The procedure:
as §2

For data set [4], the system named is S. pneumoniae (ATCC 49619). The experiment in a line: MIC, broth microdilution (susceptibility method), S. pneumoniae. It is filed as cell-based. Particulars: Streptococcus pneumoniae, ATCC49619, MH broth with 3% lysed horse blood. The procedure: as §2
For the next data set, the target named is HSA (Homo sapiens (Human), UniProt P02768). Put plainly: HSA binding analysis using a chiral HSA column. It is filed as in vitro ADME. On the procedure:
The test system used in this analysis was an HSA chiral column.
A 10 mM stock solution of Example 7 (molecular weight of 475.49 and HPLC purity 86.3%) was prepared by dissolving 1.8 mg of a compound of Example 7 in 0.327 ml of DMSO. The compound of Example 7 at a concentration of 100 μM was prepared by diluting the stock solution at 10 mM in DMSO with Potassium phosphate buffer pH 7.0.
The relationship between the retention time (Tr) and percentage of protein binding (PB %) depended on the dead time (T0) and the capacity factor (k′): PB %=[k′/(k′+1)]*100 • where k′=(Tr−T0)/T0 Results

In the next data set the test system is E. faecalis (ATCC 29212). The experiment in a line: MIC, broth microdilution (susceptibility method), E. faecalis. The format is cell-based. Conditions: Enterococcus faecalis, ATCC29212, MH broth. The procedure:
as §2

For data set [5] the following is noted: rats, intravenous; cited from earlier work.
The mark [6] stands for this setting: ca-MHB supplemented with 80% human serum, read-out: MIC S. aureus CIP 54.146 in the presence of 80% human serum.
Where [7] appears, read: ca-MHB, read-out: MIC S. aureus CIP 54.146.

Chain of HSA (P02768 25-609): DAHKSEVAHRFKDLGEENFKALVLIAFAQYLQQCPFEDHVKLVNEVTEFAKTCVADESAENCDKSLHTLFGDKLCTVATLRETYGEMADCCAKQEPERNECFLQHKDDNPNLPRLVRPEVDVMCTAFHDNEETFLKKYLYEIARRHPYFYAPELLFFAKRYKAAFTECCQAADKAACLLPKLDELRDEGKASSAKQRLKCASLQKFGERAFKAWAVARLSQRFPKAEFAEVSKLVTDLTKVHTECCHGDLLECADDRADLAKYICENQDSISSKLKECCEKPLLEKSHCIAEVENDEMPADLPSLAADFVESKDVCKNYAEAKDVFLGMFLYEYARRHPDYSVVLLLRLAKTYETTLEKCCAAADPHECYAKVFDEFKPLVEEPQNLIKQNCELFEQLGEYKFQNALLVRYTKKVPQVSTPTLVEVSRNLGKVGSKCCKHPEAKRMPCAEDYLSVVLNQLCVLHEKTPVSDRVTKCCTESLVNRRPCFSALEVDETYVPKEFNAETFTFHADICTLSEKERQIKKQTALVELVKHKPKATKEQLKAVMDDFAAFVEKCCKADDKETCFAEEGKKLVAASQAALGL

Regarding `CCc1cc(O)c(Oc2ccc(C(=O)N3CCNC(=O)C3)cc2F)cc1F` [Example 1, 4-[4-(4-Ethyl-5-fluoro-2-hydroxyphenoxy)-3-fluorobenzoyl]piperazin-2-one], the MIC was found to be 0.5 µg/mL in data set [1] (setting [6]) and 0.25 µg/mL (≈ 0.664 µM) in data set [1] (setting [7]). In addition, the IC50 in data set [2] was 16 nM. Further, the “Protection of infected mice (survival rate)” value in [3] (single oral administration, 100 and 200 mg/kg) is recorded as “able to protect mice against bacterial dissemination”; in data set [3] (single subcutaneous administration, 6.25 and 12.5 mg/kg), “able to protect mice against bacterial dissemination”.

As to `CCc1ccc(Oc2ccc(C(=O)N3CCNC(=O)C3)cc2F)c(O)c1` [Example 2, 4-[4-(4-Ethyl-2-hydroxyphenoxy)-3-fluorobenzoyl]piperazin-2-one], the results for the MIC in data set [1] (setting [6]) and in data set [1] (setting [7]) were 1 µg/mL and 1 µg/mL (≈ 2.79 µM), respectively. In [2], the IC50 was 29 nM.

Turning to `CCOC(=O)Oc1cc(CC)c(F)cc1Oc1ccc(C(=O)N2CCNC(=O)C2)cc1F` [Example 3, 4-Fluoro-2-{2-fluoro-4-[(3-oxopiperazin-1-yl)carbonyl]phenoxy}-5-ethylphenyl ethyl carbonate], the IC50 in data set [2] was determined as 5000 nM.

For the compound `CCc1cc(O)c(Oc2ccc(C(=O)N3CC(=O)NC(=O)C3)cc2F)cc1F` [Example 4, 4-[4-(4-Ethyl-5-fluoro-2-hydroxyphenoxy)-3-fluorobenzoyl]piperazine-2,6-dione], the MIC stood at 32 µg/mL (≈ 82 µM) in the data set on MRSA (IHMA #510059) (broth microdilution, MH broth) and 4 µg/mL (≈ 10.2 µM) in the data set on MSSA (IHMA #555189) (broth microdilution, MH broth).

Regarding `CCc1cc(O)c(Oc2ccc(C(=O)N3CCN(C)C(=O)C3)cc2F)cc1F` [Example 5, 4-[4-(4-Ethyl-5-fluoro-2-hydroxyphenoxy)-3-fluorobenzoyl]-1-methylpiperazin-2-one], the MIC stood at 1 µg/mL (≈ 2.56 µM) in the data set with MRSA (IHMA #510059) (broth microdilution, MH broth) and 0.015 µg/mL (≈ 0.0384 µM) with MSSA (IHMA #555189) (broth microdilution, MH broth).

Turning to `CCc1cc(O)c(Oc2ccc(C(=O)N3CCN(CC(N)=O)C(=O)C3)cc2F)cc1F` [Example 6, 2-[4-(4-(4-Ethyl-5-fluoro-2-hydroxyphenoxy)-3-fluorobenzoyl]-2-oxopiperazin-1-yl)acetamide], the minimum inhibitory concentration (MIC) in the data set on MRSA (IHMA #510059) (broth microdilution, MH broth) is 4 µg/mL (≈ 9.23 µM); in the data set on MSSA (IHMA #555189) (broth microdilution, MH broth) it was 0.25 µg/mL (≈ 0.577 µM).

In the case of `CCc1cc(O)c(Oc2ccc(C(=O)N3CCN(CN4CCOCC4)C(=O)C3)cc2F)cc1F` [Example 7, 4-[4-(4-Ethyl-5-fluoro-2-hydroxyphenoxy)-3-fluorobenzoyl]-1-(morpholinomethyl)piperazin-2-one], the minimum inhibitory concentration (MIC) against E. coli (ATCC 25922) was 4 µg/mL (≈ 8.41 µM); against C. albicans (ATCC 90028), over 128 µg/mL; in [4] it was over 128 µg/mL; in the data set with E. faecalis (ATCC 29212) it was 64 µg/mL (≈ 135 µM); in the data set with MRSA (IHMA #510059) it was 0.06 µg/mL (≈ 0.126 µM); in the data set with MSSA (IHMA #555189), 0.06 µg/mL (≈ 0.126 µM). The “Binding to HSA (in words)” value on HSA is listed as “moderate binding”. Moreover, the “HSA Binding (%)” value on HSA (37° C., pH 7.0, 100 μM) is 74.9%. Also, the “C (average)” value on HSA (average of 3 tests) is listed as 0.75. The “k′ (average)” value at HSA (average of 3 tests) was 2.987. Further, at HSA (single test), the “k′ (capacity factor)” value is 2.987 and 2.981 and 2.993.

As for `CCc1cc(O)c(Oc2ccc(C(=O)N3CCNC(=O)C3C)cc2F)cc1F` (centres unmarked) [Example 8, 4-[4-(4-Ethyl-5-fluoro-2-hydroxyphenoxy)-3-fluorobenzoyl]-3-methyl piperazin-2-one], the minimal inhibitory concentration (MIC) was determined as 1 µg/mL (≈ 2.56 µM) in the data set with MRSA (IHMA #510059) (broth microdilution, MH broth) and 0.06 µg/mL (≈ 0.154 µM) with MSSA (IHMA #555189) (broth microdilution, MH broth).

For `Oc1cc(Cl)ccc1Oc1ccc(Cl)cc1Cl` [Triclosan], the LD50 in data set [5] is 29 mg/kg.
